Experimental data reported in patent US20080124376A1, “OCULAR DEVICES AND METHODS OF MAKING AND USING THEREOF” (NOVARTIS AG, priority 2006, published 2008).
Where a name gives a salt, the structure may show the parent alone. Blank lines part the entries; values can stand above or below the compound they belong to.

Assays:
Type in all cases: physicochemical
[1] = Aqueous passive and agitated release from ASM981-loaded Nelfilcon membrane; conditions: membrane of 1% ASM981 in Nelfilcon
Procedure: The addition of Pimecrolimus (SDZ ASM981), which is synthesized by Novartis Pharma, in solution form to Nelfilcon macromer increases the liquid content of the macromer. Simple addition of the ASM981 consequently diluted the macromer and photopolymerisation produced wet structurally incoherent product. A membrane composed of 1% ASM981 was prepared by adding 1 g of the ASM981 solution to 5 g of nelfilcon macromer, vortexing for approximately 5 minutes, and removing the lid of the vial to remove excess water. The mass of the ASM981-loaded macromer was allowed to return to its original 5 g. This was conveniently achieved by leaving the mixture overnight on a flatbed shaker under a nitrogen blanket. The mixture was then placed in a membrane mould and polymerised under a static UV lamp. The mixture was successfully polymerised to form a coherent membrane, and the resultant membrane was opaque in appearance.

[2] = Passive diffusion release from drug-loaded lens / Nelfilcon membrane discs
Procedure: Cromolyn sodium was strongly absorbed by the […] matrix. The amount absorbed from a 4% concentration (equivalent to an ophthalmic solution) soak solution was on the order of 1 mg. Approximately 100 μg was released passively during a short burst period, leaving some 900 μg for release by trigger mechanism. […] A mixture of Nelfilcon and cromolyn sodium was polymerised to form a membrane, and 1.5 cm diameter discs were cut out and the release profile examined. The release profile of the directly loaded and the absorbed drug described above were compared. Direct loading levels were much lower (approx. 20 μg per lens) than the 1 mg per lens absorbed from a 4% solution. […] Ketotifen fumarate was used at much lower levels in ophthalmic solution (0.025%) than cromolyn sodium, which was reflected in the uptake experiments. Ketotifen fumarate was absorbed from a 0.025% solution into the lens at a level of 35 μg, with a modest amount released during a short burst period, leaving approximately 30 μg retained in the matrix. This is a very significant payload in relation to daily requirements. […] A mixture of Nelfilcon and ketotifen fumarate was polymerised to form a membrane, and 1.5 cm diameter discs were cut out and the release profile examined. The release profile of the directly loaded and the absorbed drug described above were compared. As with cromolyn sodium, the matrix distribution of the drug loaded directly into the polymer matrix produced differences in release behaviour compared to the absorbed drug.

[3] = Trigger release in vortex eye model (in vitro in-eye release model); conditions: for triggered release: in eye model (vortex); for trigger release following passive diffusion: drug loaded via absorption into Dailies matrix
Procedure: The vortex model is the in vitro in-eye release model described in commonly owned copending US Patent Application Publication No. 2006/0251696 A1 (herein incorporated by reference in its entirety). The experiment is carried out as follows. A contact lens is first blotted dry and immediately is carefully placed into 100 microliter of an extraction medium in an tube (e.g., a centrifuge tube, a scintillation vial, or preferably an Eppendorf microtube) and the microtube is agitated for fifteen seconds using, e.g., a Vibrex vortex mixer. At the end of one hour period, the tube is again agitated using, e.g., a Vibrex vortex mixer, for a further fifteen seconds. The extraction medium is removed from the Eppendorf microtube and 100 microliter of a fresh extraction medium is added. Extraction samples are stored at 25° C. between agitation procedures. The concentration of a guest material extracted out of a lens can be determined according to any methods known to a person skilled in the art.

[4] = Direct loading of drug into the Nelfilcon macromer (loading level); conditions: drug loaded directly into Nelfilcon macromer
Procedure: A mixture of Nelfilcon and cromolyn sodium was polymerised to form a membrane, and 1.5 cm diameter discs were cut out and the release profile examined. The release profile of the directly loaded and the absorbed drug described above were compared. Direct loading levels were much lower (approx. 20 μg per lens) than the 1 mg per lens absorbed from a 4% solution.

[5] = Drug uptake via absorption into the Dailies matrix from soak solution
Procedure: Cromolyn sodium was strongly absorbed by the Dailies matrix. The amount absorbed from a 4% concentration (equivalent to an ophthalmic solution) soak solution was on the order of 1 mg. Approximately 100 μg was released passively during a short burst period, leaving some 900 μg for release by trigger mechanism.
Ketotifen fumarate was used at much lower levels in ophthalmic solution (0.025%) than cromolyn sodium, which was reflected in the uptake experiments. Ketotifen fumarate was absorbed from a 0.025% solution into the lens at a level of 35 μg, with a modest amount released during a short burst period, leaving approximately 30 μg retained in the matrix. This is a very significant payload in relation to daily requirements.

[6] = Release of Rose Bengal from Nelfilcon lenses in PBS and lysozyme solution
[7] = Release of hyaluronan from Nelfilcon matrix in artificial lacrimal solution
Procedure: Using the techniques above, a mixture of Nelfilcon and varying amounts of hyaluronan was polymerised to form a membrane. The amount of hyaluronan loaded into the Nelfilcon macromer was 2, 6.5, and 40 mg hyaluronan/g nelfilcon (30% by weight aqueous solution). The hyaluronan used was approximately 50 kDa, 100 kDa, and 1 million Da.
The release of hyaluronan from the membrane was investigated by varying the amount and length of the hyaluronan incorporated into the matrix. Release studies were performed by placing each lens in a solution of 5 mL of artificial lacrimal solution at 35° C.

[8] = Heat stability of Nelfilcon lens with hyaluronan; conditions: lens in 6.5 mg/mL hyaluronan solution, pH 11, 120° C. for 40 minutes; FIG. 3
Procedure: Heat stability studies were also performed on the membranes. A lens prepared from 6.5 mg/mL loading of 1 M Da hyaluronan was placed in a tube of 6.5 mg/mL solution of hyaluronan at a pH of 11. The tube was sealed with a total volume of 0.8 mL, and the solution was heated at 120° C. for 40 minutes.

[9] = drug loaded directly into Nelfilcon macromer

Compound: CC[C@@H]1/C=C(\C)C[C@H](C)C[C@H](OC)[C@H]2O[C@@](O)(C(=O)C(=O)N3CCCC[C@H]3C(=O)O[C@H](/C(C)=C/[C@@H]3CC[C@H](Cl)[C@H](OC)C3)[C@H](C)[C@@H](O)CC1=O)[C@H](C)C[C@@H]2OC [ASM981, Pimecrolimus]
aqueous passive and agitated release [1]: no release was observed

Compound: O=C(O)c1cc(=O)c2c(OCC(O)COc3cccc4oc(C(=O)O)cc(=O)c34)cccc2o1 [Cromolyn sodium]
amount released passively during a short burst period ([2]; drug absorbed into Dailies matrix from 4% solution): Approximately 100 μg
amount left for release by trigger mechanism ([2]; drug absorbed into Dailies matrix from 4% solution, after burst): ~900 µg
passive release ([2]; drug loaded directly into Nelfilcon macromer, 1.5 cm discs): virtually zero passive release
triggered release [3, 9]: very significant triggered release
trigger release following passive diffusion ([3]; vortex eye model): significant release
direct loading level [4]: approx. 20 μg per lens
amount absorbed from soak solution ([5]; 4% concentration soak solution): ~1 mg

Compound: CN1CCC(=C2c3ccccc3CC(=O)c3sccc32)CC1 [Ketotifen fumarate]
amount released during a short burst period ([2]; drug absorbed into Dailies matrix from 0.025% solution): modest amount
amount retained in the matrix ([2]; drug absorbed into Dailies matrix from 0.025% solution, after burst): approximately 30 μg
time for passive diffusion to come to equilibrium [2, 9]: three
effect of albumin on trigger release ([3]; drug absorbed into Dailies matrix, albumin): little effect
effect of positively charged proteins such as lysozyme on trigger release ([3]; drug absorbed into Dailies matrix, lysozyme): significant enhanced effect
triggered release [3, 9]: very effective further release
effect of positively charged tear protein (lysozyme) on trigger release ([3]; drug loaded directly into Nelfilcon macromer, vortex eye model): enhanced
trigger release following passive diffusion ([3]; vortex eye model): enhanced triggered release susceptibility
amount absorbed into the lens ([5]; 0.025% solution): 35 µg

Compound: hyaluronan [1 M Da hyaluronan]
release pattern (release rate) ([7]; loading 6.5 mg HA/g nelfilcon, 5 mL artificial lacrimal solution, 35° C., FIG. 1): relatively constant release rate from 2 to 48 hours
heat stability: release over time after heating [8]: release curve is similar to that of the release of hyaluronan from the matrix that is not heated

Second part, led by results:

release in PBS solution with no lysozyme ([6]; Nelfilcon lens, approximately minute 150, FIG. 4): little to no Rose Bengal was released
release in a solution of lysozyme ([6]; Nelfilcon lens, from minute zero, FIG. 4): released steadily
Compound: O=C([O-])c1c(Cl)c(Cl)c(Cl)c(Cl)c1-c1c2cc(I)c(=O)c(I)c-2oc2c(I)c([O-])c(I)cc12.[Na+].[Na+] [Rose Bengal]
stability of loaded lens in saline solutions ([6]; Nelfilcon lens loaded with Rose Bengal): stable in saline solutions for extended periods of time

effect of increasing the amount of hyaluronan on release ([7]; 2, 6.5, 40 mg hyaluronan/g nelfilcon, FIG. 2): significantly affects the release
Compound: hyaluronan
